Assay results taken from US8329222B1, “Magnetic nanomedicine for tumor suppression and therapy” (priority 2011, dated 2012).

Key:
[1] = tested on: human bladder tumor cells (MGH-U1); assay: XTT growth suppression test on bladder tumor cells; format: cell-based; conditions: cultivated with MGH-U1 for 27 hours, no magnetic field, read-out: cell growth inhibit efficiency
Procedure: Cell Cultivation: Place 150 μL of a mixture liquid containing 10,000 human bladder tumor cells (MGH-U1) into each well of 96-well culture plate. Place the culture plate in a humidified incubator in a temperature of 37° C. and with 5% CO2 to enable adherent growth of the cells.
Agent Addition: 24 hours later, mix separately MNPs (concentration 600 μg/mL) EPI (concentrations 2, 5, 10 μM), and EPI/SPAnH/MNPs magnetic nanomedicine (concentrations 2, 5, 10 μM) with a RPMI1640 medium to form mixed solutions. Add respectively 50 μL of the mixed solutions to well, and then place the culture plate in a humidified incubator having 5% CO2 for 2, 4, 6, 10, and 27 hours.
Cell Counting: Remove RPMI1640 medium in the well and add 120 μL of an XTT reaction liquid (2,3-Bis(2-methoxy-4-nitro-5-sulfophenyl)-2H-tetrazolium-5-carboxanilide inner salt) to the wells. Use an ELISA reader (BIO-TEK, model EL 808) to measure the OD (Optical Density) values of each cell at a wavelength of 490 nm to determine the toxicity of SPAnH/MNPs magnetic nanocomposite and the cell-killing rate of EPI/SPAnH/MNPs magnetic nanomedicines to the bladder tumor cells.
Cell Cultivation: Place 150 μL of a mixture liquid containing 10,000 human bladder tumor cells (MGH-U1) into each well of 96-well culture plate. […]

[2] = tested on: bladder tumor cells MGH-U1; assay: Fluorescence microscopy of cell entry after 4 hours; format: cell-based, human; conditions: reacted 4 hours, fluorescent microscope photos
Procedure: Add 2 mL of a mixture liquid containing 20,000 bladder tumor cells MGH-U1 to a 3.5 cm diameter cultivation plate. Place the cultivation plate in a humidified incubator having 5% CO2 in a temperature of 37° C. to enable adherent growth of the cells. Twenty-four hours later, add to the cultivation plate, 100 μL of RPMI1640 medium containing EPI, EPI/SPAnH/MNPs magnetic nanomedicine, DOX, and DOX/SPAnH/MNPs magnetic nanomedicine to react for 4 hours, then flush it with 1 mL of Hanks' balance slat solution (HBSS).

SMILES | inhibition at 10 µM [1] [%] | entry into bladder tumor cell MGH-U1 [2]
COc1cccc2c1C(=O)c1c(O)c3c(c(O)c1C2=O)C[C@@](O)(C(=O)CO)C[C@@H]3O[C@H]1C[C@H](N)[C@H](O)[C@H](C)O1 [DOX, Doxorubicin] | 66.2 | do enter into the bladder tumor cell MGH-U1
COc1cccc2c1C(=O)c1c(O)c3c(c(O)c1C2=O)C[C@@](O)(C(=O)CO)C[C@@H]3O[C@H]1C[C@H](N)[C@@H](O)[C@H](C)O1 [EPI, Epirubicin] | 64.3 | do enter into the bladder tumor cell MGH-U1
